This is an account of results in patent publication US7834174B2, “Per-6-guanidino-, alkylamino-cyclodextrins, methods of their synthesis and their use for the compaction of DNA and intercellular delivery” (priority 2004, dated 2010).

Test [1] has as its system ultrapure calf thymus DNA 13 kb. The test can be described thus: DNA compaction: electrophoresis in agarose gel with ethidium bromide as stain. It is filed as binding. The following applies: control substances, wells B-H and b (10 λ to 1 λ diluted 1:10).
The subject of another test is 5 kbp DNA. In words: Atomic force microscopy (AFM, tapping mode) of DNA incubated with compound. The note with it: 5 kbp DNA incubated with compound. The text has this: The DNA-bguan interaction was confirmed with UV absorption spectra. The absorption maximum and the shape of the absorbance curve of DNA changed appreciably in the presence of 1 equivalent bguan, indicating a distinct change of its structure in buffer solution. In addition, when a 5 kbp DNA was examined under the atomic force microscope (AFM) in the tapping mode, nematoid (long warm-like) formations of up to 1 μm were observed. […] This actually proves that DNA compacts not in big aggregates but in nanoparticles of size suitable to cross a cell membrane.

A further test has as its system HeLa cells. The test can be described thus: Cell penetration of FITC-labeled compounds by fluorescence microscopy. The following applies: 100 or 200 μM, 1 h incubation at 37° C. It is filed as cell-based, human.

Structures can show the parent of a compound that is named as a salt.

`OC[C@H]1O[C@@H]2O[C@H]3[C@H](O)[C@@H](O)[C@@H](O[C@H]4[C@H](O)[C@@H](O)[C@@H](O[C@H]5[C@H](O)[C@@H](O)[C@@H](O[C@H]6[C@H](O)[C@@H](O)[C@@H](O[C@H]7[C@H](O)[C@@H](O)[C@@H](O[C@H]8[C@H](O)[C@@H](O)[C@@H](O[C@H]1[C@H](O)[C@H]2O)O[C@@H]8CO)O[C@@H]7CO)O[C@@H]6CO)O[C@@H]5CO)O[C@@H]4CO)O[C@@H]3CO` [β-cyclodextrin]: in test [1], the “interaction with DNA under the electrophoresis conditions” value was “do not display any kind of interaction with DNA”.

As to `N=C(N)N` [guanidine hydrochloride], in test [1], the “interaction with DNA under the electrophoresis conditions” value is “do not display any kind of interaction with DNA”. With `NCCNCC1OC2OC3C(CNCCN)OC(OC4C(CNCCN)OC(OC5C(CNCCN)OC(OC6C(CNCCN)OC(OC7C(CNCCN)OC(OC8C(CNCCN)OC(OC1C(O)C2O)C(O)C8O)C(O)C7O)C(O)C6O)C(O)C5O)C(O)C4O)C(O)C3O` (stereo not drawn) [bpen, Heptakis(6-deoxy-6-aminoethylamino)-β-cyclodextrin], the “elongated (nematoid) DNA forms under AFM” value in the test on 5 kbp DNA is “complete absence of the elongated forms”. For the same molecule, in the test on 5 kbp DNA (AFM), the “diameter of round DNA nanoparticles” value is reported as roughly 40 nm. For “fluorescein isothiocyanate [treated FITC]”, the “fluorescence inside the cytoplasm” value in the test on HeLa cells is “did not show any fluorescence”.
